Measured values from patent US9464064B2, “HCV helicase inhibitors and methods of use thereof” (University of Kansas, priority 2011, dated 2016).

Legend:
NS3h_DV2 = target: T1, NS3h_DV2 (Dengue virus type 2, UniProt P29990); experiment: RNA-stimulated ATP hydrolysis, pH 7.5, Dengue; type: biochemical; settings: 10 μM poly(U) RNA, read-out: ATPase w/RNA NS3h_DV2 IC50 (μM) ± SD
T1 construct: made in house
Procedure: (§1) To compare the effect of compounds on HCV NS3h_1b (con1) to NS3h_DV2, reactions were performed with 2 nM of either enzyme in 25 mM Tris pH 7.5, 1.25 mM MgCl2, 1.0 mM ATP, 10% DMSO, 5 μg/ml BSA, 0.01% (v/v) TWEEN 20, 0.05 mM DTT, and 10 μM poly(U) RNA at 37° C.
(§2) To further profile compound specificity, it was determined whether the compounds would inhibit homologous NS3h expressed by the Dengue virus (NS3h_DV2). […] The same assays were also repeated with HCV NS3h_1b(con1) for comparison.

[1] = Absorbance and fluorescence properties; type: physicochemical; settings: for Absorbance ∈: extinction coefficient
Description: Most of the compounds isolated from the two yellow dyes were fluorescent, absorbing light around 340 nm, and emitting near 420 nm. Their extinction coefficient and peak absorption wavelengths increased as the length of the benzothiazole oligomer increased. Their relative fluorescence decreased with the length of the benzothiazole chain. None of the compounds absorbed light near either the absorption or emission wavelengths of the Cy5-labeled MBHA substrate, or the wavelengths where the fluorescence of ethidium bromide stained DNA, SYBER green I-stained DNA, NS3-catalyzed peptide cleavage, or ATP hydrolysis were measured.
When directly compared with P4, the semi-synthetic primuline derivatives have a sharper absorbance peak centered near 360 nm, and they emit 3-15 times more light when excited at their absorbance maximum. […] Some compounds, like 12, stained both the cytoplasm and nucleus, but they also stained glass coverslips.

[2] = target: T2, E. coli SSB-Cy5-dT15 complex (Escherichia coli, UniProt P0AGE0); experiment: Escherichia coli SSB Cy5-dT15 binding assay (fluorescence polarization); settings: for IC50: disruption of Cy5-dT15-SSB complex, read-out: Cy5-dT15-SSB Binding IC50; for inhibition at 100 µM: read-out: SSB % Displaced @ 100 μM; for EC50: read-out: SSB EC50
T2 construct: purchased Promega
Procedure: The Escherichia coli SSB assay was performed in a total volume of 20.2 μl in 384-well, flat-bottom, low volume, black microplates (Greiner Bio-One). First, 20 μl of a assay solution (5 nM Cy5-[…]-3′ (Cy5-dT15, SEQ ID NO:5), 20 nM E. coli SSB (Promega), 25 mM MOPS, pH 7.5, 1.25 mM MgCl2, 0.0025 mg/ml BSA, 0.005% (v/v) TWEEN 20 and 0.025 mM DTT) was dispensed in each well, then 0.2 μl of dimethylsulfoxide (DMSO) or compound dissolved in DMSO was added by pin transfer, such that the final concentration of DMSO was 1% (v/v) in each assay.
For IC50 determination, assays were performed with 60 μl total volume in black flat bottomed 384-well microplates (Corning). First, 3.0 μl of DMSO or compound dissolved in DMSO was added, such that the final concentration of DMSO was 5% (v/v) in each assay. Then 57 μl of a assay solution (5 nM Cy5-dT15, 20 nM SSB, 25 mM MOPS, pH 7.5, 1.25 mM MgCl2, 0.0025 mg/ml BSA, 0.005% (v/v) TWEEN 20 and 0.025 mM DTT) was dispensed in each well. Polarization was monitored with a TECAN Infinite M1000 PRO multi-mode microplate reader by exciting at 635 nm (5 nm bandwidth) and measuring total fluorescence intensity, parallel and perpendicular polarized light at 667 nm (20 nm bandwidth).

scNS4A-NS3 = scNS4A-NS3 (Hepatitis C virus genotype 1b, UniProt Q9WMX2); experiment: NS3 protease assay (ENZOLYTE 520), full-length; type: biochemical, hepatitis C virus genotype 1b(con1); parameters: other: average of two sets; There is also a His tag
Procedure: (§3) All oligonucleotides were purchased from Integrated DNA Technologies (IDT, Coralville, Iowa). Primuline derivatives were synthesized and purified as described herein. Three different NS3 proteins were used in this study. Two were truncated C-terminally His-tagged NS3 proteins lacking the N-terminal protease, called NS3h, the third was a full-length NS3 with the portion of NS4A needed for protease activation fused to its N-terminus, called scNS4A-NS3 (Howe, et al. (1999) Protein Sci. 8:1332-41), and the fourth was a 23 kDa scNS4A-NS3 protease fragment lacking the helicase domains, called scNS4A-NS3p (Protein One, Rockville, Md.). NS3h was expressed from two different HCV strains. NS3h_1b(con1) was from the con1 strain of genotype 1b (GENBANK accession AB114136), and NS3h_2a(JFH1) was from the JFH1 strain of HCV genotype 2a (GENBANK accession AJ238799). […] His-tagged recombinant NS3h_1b(con1), NS3h_2a(JFH1), and scNS4A-NS3 (also from genotype 1b(con1)) were expressed, and purified as previously described (Frick, et al. (2010) supra; Lam, et al. (2003) J. Virol. 77:3950-3961). The scNS4A-NS3p (genotype 1b) was from Protein One. A plasmid expressing NS3h from dengue virus strain 2 (NS3h_DV2)(GENBANK accession 2BMF) is known in the art (Xu, et al. (2005) J. Virol. 79:10278-10288), and used to express and purify NS3h_DV2 (Belon, et al. (2010) supra)
(§4) All NS3 protease assays were carried out using the 5-Carboxyfluorescein-labeled substrate from the AnaSpec. ENZOLYTE 520 Protease Assay Kit (AnaSpec, San Jose, Calif.). Each assay contained 5 nM scNS4A-NS3 or 50 nM scNS4A-NS3p, […], 5% DMSO and 1× Anaspec HCV protease assay buffer. Assays were carried out in a total volume of 20 μl in black 384-well plates with fluorescence at 520 nm measured using a BMG FLUOstar Omega fluorescence spectrophotometer. Reactions were performed with eight concentrations of a two-fold dilution series of each compound (in duplicate) starting at 100 μM.

NS3h_1b(con1) = target: T3, NS3h_1b(con1) (Hepatitis C virus genotype 1b, UniProt Q9WMX2); experiment: RNA-stimulated ATP hydrolysis, pH 7.5, HCV; type: biochemical, hepatitis C virus genotype 1b(con1)
T3 construct: truncated C-terminally His-tagged NS3 proteins lacking the N-terminal protease, called NS3h; His-tag (C); made in house
Procedure: as §1
as §2, with “comparison. […] However, most of the primuline derivatives were relatively potent inhibitors of RNA-stimulated ATP hydrolysis catalyzed by the Dengue enzyme under the same conditions.” for “comparison.”

scNS4A-NS3p = target: T4, scNS4A-NS3p (UniProt P26663); experiment: NS3 protease assay (ENZOLYTE 520), protease fragment; type: biochemical, hepatitis C virus genotype 1b; settings: read-out: Protease ScNS4a-NS3p IC50 (μM) ± SD; one set of assays
T4 construct: fused on or other part: NS4A cofactor peptide, from the same polyprotein, fused to the NS3 protease fragment
Procedure: as §3, §4

Sequence of scNS4A-NS3 (Q9WMX2 1027-1657): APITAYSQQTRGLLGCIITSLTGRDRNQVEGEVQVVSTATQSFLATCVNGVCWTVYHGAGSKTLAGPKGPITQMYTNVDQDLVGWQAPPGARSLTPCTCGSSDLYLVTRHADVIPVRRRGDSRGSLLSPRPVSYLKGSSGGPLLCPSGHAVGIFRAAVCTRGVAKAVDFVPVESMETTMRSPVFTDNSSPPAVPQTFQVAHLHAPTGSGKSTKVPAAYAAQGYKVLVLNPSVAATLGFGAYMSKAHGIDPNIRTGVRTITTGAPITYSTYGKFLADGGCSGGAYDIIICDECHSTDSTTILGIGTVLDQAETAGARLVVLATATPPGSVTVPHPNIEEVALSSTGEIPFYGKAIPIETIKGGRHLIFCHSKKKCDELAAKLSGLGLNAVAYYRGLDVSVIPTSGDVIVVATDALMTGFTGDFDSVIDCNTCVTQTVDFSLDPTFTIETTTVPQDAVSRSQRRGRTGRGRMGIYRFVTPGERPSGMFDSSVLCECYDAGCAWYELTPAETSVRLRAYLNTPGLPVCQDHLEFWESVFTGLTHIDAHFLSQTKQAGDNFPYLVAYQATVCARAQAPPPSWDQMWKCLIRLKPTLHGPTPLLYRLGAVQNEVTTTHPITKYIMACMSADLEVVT
T4 sequence (P26663 1027-1657): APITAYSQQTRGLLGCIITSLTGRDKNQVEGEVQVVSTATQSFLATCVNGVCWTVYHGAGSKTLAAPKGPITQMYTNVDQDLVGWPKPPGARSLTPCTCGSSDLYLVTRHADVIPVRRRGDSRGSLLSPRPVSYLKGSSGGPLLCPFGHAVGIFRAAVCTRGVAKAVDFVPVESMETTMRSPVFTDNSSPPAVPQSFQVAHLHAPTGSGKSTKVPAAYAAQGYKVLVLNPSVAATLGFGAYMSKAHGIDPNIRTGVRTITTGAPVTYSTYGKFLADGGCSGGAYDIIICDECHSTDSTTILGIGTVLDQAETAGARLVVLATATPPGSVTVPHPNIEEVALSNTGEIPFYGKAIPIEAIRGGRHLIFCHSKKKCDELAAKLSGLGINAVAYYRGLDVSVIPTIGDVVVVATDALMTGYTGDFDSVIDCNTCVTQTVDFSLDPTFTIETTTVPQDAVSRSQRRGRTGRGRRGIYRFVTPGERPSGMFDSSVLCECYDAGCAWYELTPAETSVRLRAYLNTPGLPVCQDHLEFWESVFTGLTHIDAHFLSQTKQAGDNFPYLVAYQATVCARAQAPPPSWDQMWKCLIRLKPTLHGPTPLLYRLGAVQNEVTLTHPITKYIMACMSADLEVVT
T1 sequence (P29990 1646-2093): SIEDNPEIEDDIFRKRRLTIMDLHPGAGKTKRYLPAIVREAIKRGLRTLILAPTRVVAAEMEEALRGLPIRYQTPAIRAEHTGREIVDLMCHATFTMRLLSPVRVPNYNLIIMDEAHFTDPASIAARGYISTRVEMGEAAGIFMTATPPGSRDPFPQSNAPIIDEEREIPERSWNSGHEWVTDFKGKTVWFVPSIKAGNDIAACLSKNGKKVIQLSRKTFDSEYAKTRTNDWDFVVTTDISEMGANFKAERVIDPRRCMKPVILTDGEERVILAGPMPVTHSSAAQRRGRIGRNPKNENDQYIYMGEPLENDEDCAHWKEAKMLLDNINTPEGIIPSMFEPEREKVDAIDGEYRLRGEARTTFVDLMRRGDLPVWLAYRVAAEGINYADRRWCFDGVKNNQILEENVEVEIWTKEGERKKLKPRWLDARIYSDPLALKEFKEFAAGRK
T2 sequence (P0AGE0 2-178, one chain of several): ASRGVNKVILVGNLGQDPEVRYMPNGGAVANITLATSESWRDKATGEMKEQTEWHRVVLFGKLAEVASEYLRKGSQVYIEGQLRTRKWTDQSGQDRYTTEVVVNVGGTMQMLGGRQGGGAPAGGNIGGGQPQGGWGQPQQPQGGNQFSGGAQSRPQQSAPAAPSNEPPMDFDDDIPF
T3 sequence (Q9WMX2 1192-1657): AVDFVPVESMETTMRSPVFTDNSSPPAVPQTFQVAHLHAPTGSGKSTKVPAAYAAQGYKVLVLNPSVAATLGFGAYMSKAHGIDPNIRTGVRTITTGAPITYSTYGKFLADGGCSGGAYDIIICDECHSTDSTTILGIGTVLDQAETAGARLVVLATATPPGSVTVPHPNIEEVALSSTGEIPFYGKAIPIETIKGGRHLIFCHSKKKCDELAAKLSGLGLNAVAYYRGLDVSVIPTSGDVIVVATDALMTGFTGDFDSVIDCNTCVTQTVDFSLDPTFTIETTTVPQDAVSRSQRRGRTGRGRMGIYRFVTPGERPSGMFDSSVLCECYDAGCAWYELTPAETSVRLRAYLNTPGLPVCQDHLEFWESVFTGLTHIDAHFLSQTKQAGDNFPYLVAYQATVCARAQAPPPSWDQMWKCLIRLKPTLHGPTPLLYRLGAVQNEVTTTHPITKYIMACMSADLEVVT

Row | SMILES | IC50 (NS3h_DV2) [µM] | Absorbance λmax [1] [nm] | Fluorescence Emmax [1] [nm] | Fluorescence RFU@ 10 μM [1] [RFU] | Absorbance ∈ [1] | IC50 [2] [µM] | inhibition at 100 µM [2] [%] | EC50 [2] [µM] | IC50 (scNS4A-NS3) [µM] | IC50 (NS3h_1b(con1)) [µM] | IC50 (scNS4A-NS3p) [µM]
1 | Cc1ccc2nc(-c3ccc4nc(-c5ccc(NC(=O)c6ccc(N)cc6)cc5)sc4c3)sc2c1S(=O)(=O)O [Compound 6, 2′-(4-(4-aminobenzamido)phenyl)-6-methyl-[2,6′-bibenzo[d]thiazole]-7-sulfonic acid] | 12 ± 4 | 360 | 429 | 4 | 36,600 M^−1cm^−1 | 2 ± 1 | 99 | 3 ± 1 | 39 ± 17 | 140 ± 3 | –
2 | Cc1ccc2nc(-c3ccc4nc(-c5ccc(NC(=O)c6ccc(F)cc6)cc5)sc4c3)sc2c1S(=O)(=O)O.N [Compound 7, 2′-(4-(4-fluorobenzamido)phenyl)-6-methyl-[2, bibenzo[d]thiazole]-7-sulfonic acid] | 6 ± 1 | 356 | 496 | 111 | 24,950 M^−1cm^−1 | 14 ± 4 | 88 | 14 ± 4 | 89 ± 47 | 73 ± 13 | > 100
3 | Cc1ccc2nc(-c3ccc4nc(-c5ccc(NC(=O)c6ccc(C(F)(F)F)cc6)cc5)sc4c3)sc2c1S(=O)(=O)O [Compound 12, 6-methyl-2′-(4-(4-(trifluoromethyl)benzamido)phenyl)-[2,6′-bibenzo[d]thiazole]-7-sulfonic acid] | 2 ± 0.5 | 356 | 498 | 158 | 42,750 M^−1cm^−1 | 3 | 80 | 4 ± 2 | 5 ± 1 | 16 ± 5 | 7
4 | Cc1ccc2nc(-c3ccc4nc(-c5ccc(NC(=O)c6ccc(C(C)(C)C)cc6)cc5)sc4c3)sc2c1S(=O)(=O)O [Compound 13, 2′-(4-(4-(tert-butyl)benzamido)phenyl)-6-methyl-[2,6′-bibenzo[d]thiazole]-7-sulfonic acid] | 8 ± 1 | 356 | 502 | 164 | 37,150 M^−1cm^−1 | 32 ± 7 | 80 | 32 ± 7 | 56 ± 23 | 150 ± 40 | 93
5 | Cc1ccc2nc(-c3ccc4nc(-c5ccc(NC(=O)c6ccc7nc(-c8ccc(N)cc8)sc7c6)cc5)sc4c3)sc2c1S(=O)(=O)O [Compound 35, 2′-(4-(2-(4-aminophenyl)benzo[d]thiazole-6-carboxamido)phenyl)-6-methyl-[2,6′-bibenzo[d]thiazole]-7-sulfonic acid] | – | 361 | 532 | 2 | 42,000 M^−1cm^−1 | 3 ± 1 | 95 | – | 7 ± 1 | 150 ± 2 | 20
6 | Cc1ccc2nc(-c3ccc4nc(-c5ccc(NC(=O)Nc6ccc(C(F)(F)F)cc6)cc5)sc4c3)sc2c1S(=O)(=O)O.N [Compound 47] | – | – | – | – | – | 15 ± 3 | 91 | 15 | – | – | –
7 | Cc1ccc2nc(-c3ccc4nc(-c5ccc(NC(=O)Nc6ccc(F)cc6)cc5)sc4c3)sc2c1S(=O)(=O)O.N [Compound 48] | – | – | – | – | – | 11 ± 2 | 100 | 11 | – | – | –
8 | Cc1ccc2nc(-c3ccc4nc(-c5ccc(NC(=O)c6cccc7ccccc67)cc5)sc4c3)sc2c1S(=O)(=O)O.N [Compound 49] | – | – | – | – | – | 9 ± 2 | 94 | 9 | – | – | –
9 | Cc1ccc2nc(-c3ccc4nc(-c5ccc(NC(=S)Nc6ccccc6)cc5)sc4c3)sc2c1S(=O)(=O)O.N [Compound 50] | – | – | – | – | – | 7 ± 1 | 98 | 7 | – | – | –
10 | Cc1ccc2nc(-c3ccc(NC(=O)c4ccc(NC(=O)c5ccc(NC(=O)OCC6c7ccccc7-c7ccccc76)cc5)cc4)cc3)sc2c1S(=O)(=O)O.N [Compound 51] | – | – | – | – | – | 7 ± 3 | – | 7 | – | – | –
11 | Cc1ccc2nc(-c3ccc4nc(-c5ccc(NC(=O)Nc6ccccc6)cc5)sc4c3)sc2c1S(=O)(=O)O.N [Compound 52] | – | – | – | – | – | 6 ± 1 | 95 | 6 | – | – | –
12 | Cc1ccc2nc(-c3ccc4nc(-c5ccc(NCc6ccccc6)cc5)sc4c3)sc2c1S(=O)(=O)O [Compound 53] | – | – | – | – | – | 5 ± 1 | 102 | 5 | – | – | –
13 | Cc1ccc2nc(-c3ccc4nc(-c5ccc(NC(=O)Nc6ccc(Cl)cc6)cc5)sc4c3)sc2c1S(=O)(=O)O [Compound 54] | – | – | – | – | – | 5 ± 1 | 94 | 5 | – | – | –
14 | COc1ccc(NC(=O)Nc2ccc(-c3nc4ccc(-c5nc6ccc(C)c(S(=O)(=O)O)c6s5)cc4s3)cc2)cc1 [Compound 55] | – | – | – | – | – | 4 ± 1 | 95 | 4 | – | – | –
15 | Cc1ccc2nc(-c3ccc4nc(-c5ccc6nc(-c7ccc8nc(-c9ccc(N)cc9)sc8c7)sc6c5)sc4c3)sc2c1S(=O)(=O)O [Compound P4, 2′″-(4-aminophenyl)-6-methyl-[2,6′:2″,6′″-quaterbenzo[d]thiazole]-7-sulfonic acid] | 0.94 ± 0.7 | 382 | 467 | 3 | 32,000 M^−1cm^−1 | – | – | – | 2 ± 1 | – | 4.9
